# According to US11365177B2, “Chemical uncouplers of respiration and methods of use thereof” (Dana-Farber Cancer Institute, Inc., priority 2017, dated 2022):
# How the values were obtained:
# [1] = Plasma concentration after compound administration in DIO mice; assay type: in vivo; settings: 10 mg/kg, 1 hour after administration, FIG. 5
# Method: DIO mice (19 weeks, males, stock #380050) were purchased from The Jackson Laboratory. Prior to compound administration, mice were mock injected with vehicle (18:1:1 v/v/v saline:DMSO:Kolliphor EL) for 4 days. Compounds 33 and 37 were prepared in the same vehicle and administered at 10 mg/kg doses. Plasma concentration was measured 1 hour after compound administration.
# DIO mice = experiment: Treatment of DIO mice with compound: body weight and food intake; assay type: in vivo
# Method: DIO mice (19 weeks, males, stock #380050) were purchased from The Jackson Laboratory. Mice were maintained on a high fat diet for the duration of the experiment (60% fat, Research Diets). Prior to compound administration, mice were mock injected with vehicle (18:1:1 v/v/v saline:DMSO:Kolliphor EL, intraperitoneal) for 4 days. Compound 33 was prepared in the same vehicle and administered at 5 μl/g body weight at the indicated doses. Administration of vehicle of compound occurred once per day. Data shown in FIG. 4A compared changes in body weights of representative mice at day 7 versus initial weight on day 0. Data shown in FIG. 4B represented average food intake per mouse over the 7 day dosing period for each treatment group.
# C2C12 cells = experiment: Measurement of cellular respiration (Seahorse), uncoupling bioactivity; assay type: cell-based; settings: Mus musculus, Table 5, cyclic head groups, 50 μM compound, maximal increase versus basal oligomycin-treated respiration, means SEM, n=3-6/group, read-out: % stimulation of respiration (baseline = 100%)
# Method: Oligomycin was purchased from EMD Millipore, and FCCP and rotenone were purchased from Sigma. C2C12 cells were seeded at 35,000 cells/well in an XF24 cell culture microplate (V7-PS, Seahorse Bioscience) and analyzed the following day. On the day of analysis, the cells were washed once with Seahorse respiration buffer (8.3 g/l DMEM, 1.8 g/l NaCl, 1 mM pyruvate, 20 mM glucose, pen/strep), placed in 0.5 ml Seahorse respiration buffer, and incubated in a CO2-free incubator for 1 h. Port injection solutions were prepared as follows (final concentrations in assay in parentheses): 10 μM oligomycin (1 μM final), 500 μM indicated compound (50 μM final), 2 μM FCCP (0.2 μM final), and 30 μM rotenone (3 μM final). The Seahorse program was run as follows: basal measurement, 3 cycles; inject port A (oligomycin), 3 cycles; inject port B (compounds), 8 cycles; inject port C (FCCP), 3 cycles; inject port D (rotenone), 3 cycles. Each cycle consisted of mix 2 min, wait 0 min, and measure 2 min. For data expressed as a percentage of oligomycin-treated basal, the respiration at cycle 6 was normalized to 100%, and the maximum respiration at any time point between cycles 7 and 15 inclusive was used.
# Tables 1-4 show uncoupling bioactivity of compounds of the disclosure with different fatty acid side chains. Respiration in C2C12 cells is shown as maximal increases versus basal oligomycin-treated respiration, which is normalized to 100%. Data are shown as means SEM, n=3-6/group.
# [2] = Liver microsome stability assay; assay type: in vitro ADME; settings: mouse liver microsomes 1 mg/mL, 1 μM compound, NADPH, pH 7.4, 37 C; FIG. 3
# Method: The compounds were evaluated in a mouse liver microsome assay.
# Microsome stability was evaluated by incubating 1 μM test compound with 1 mg/mL hepatic microsomes in 100 mM KPi, pH 7.4 at 37 C with shaking. The reaction was initiated by adding NADPH (1 mM final concentration). Aliquots were removed at 0, 5, 10, 20, 40, and 60 minutes and added to acetonitrile (5× v:v) to stop the reaction and precipitate the protein. NADPH dependence of the reaction was evaluated with -NADPH samples. At the end of the assay, the samples were centrifuged through a Millipore Multiscreen Solvinter 0.45 micron low binding PTFE hydrophilic filter plate and analyzed by LC-MS/MS. Data is log transformed and represented as half-life.
# mPM20D1 = target: T1, mPM20D1 (Mus musculus, UniProt Q8C165); experiment: PM20D1 hydrolysis assay; assay type: in vitro ADME, murine; settings: 10 nmol compound in 100 μl PBS, mPM20D1, 1 h at 37° C., LC-MS; FIG. 2
# T1 construct: host or cells: 293T cells (secreted into serum-free conditioned media)
# T1 sequence (Q8C165 25-503): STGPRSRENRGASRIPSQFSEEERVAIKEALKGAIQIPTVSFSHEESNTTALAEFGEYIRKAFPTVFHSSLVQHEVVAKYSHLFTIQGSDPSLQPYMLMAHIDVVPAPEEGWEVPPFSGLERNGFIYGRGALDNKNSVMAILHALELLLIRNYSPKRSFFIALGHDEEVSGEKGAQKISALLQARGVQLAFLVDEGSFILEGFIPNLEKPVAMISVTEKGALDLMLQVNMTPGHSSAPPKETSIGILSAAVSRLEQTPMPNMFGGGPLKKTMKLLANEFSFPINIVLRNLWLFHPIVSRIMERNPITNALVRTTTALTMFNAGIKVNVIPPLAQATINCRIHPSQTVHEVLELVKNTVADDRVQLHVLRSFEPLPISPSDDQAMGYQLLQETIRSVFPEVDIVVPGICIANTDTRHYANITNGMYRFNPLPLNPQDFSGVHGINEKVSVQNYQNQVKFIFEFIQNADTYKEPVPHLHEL
# Method: Three 10 cm plates of 293T cells were transiently transfected with murine PM20D1-6×His-Flag plasmid (Addgene plasmid #84566) using PolyFect according to the manufacturer's instructions. After 48 h, cells were washed twice in PBS and switched to serum free DMEM with penicillin and streptomycin. Serum free conditioned media was collected 24 h later and concentrated ˜10-fold in 30 kDa MWCO filters (EMD Millipore) according to the manufacturer's instructions. The concentrated media was centrifuged to remove debris (600×g, 10 min, 4° C.) and the supernatant containing PM20D1-flag was decanted into a new tube. PM20D1-flag was immunoaffinity purified overnight at 4° C. from the concentrated media using magnetic Flag-M2 beads (Sigma Aldrich). The beads were collected, washed three times in PBS, eluted with 3× Flag peptide ([…] in PBS, Sigma Aldrich), aliquoted, and stored at −80° C.
# 10 nmol of the indicated compound was incubated in 100 μl PBS (100 VM initial substrate). Reactions were initiated by the addition of PBS or mPM20D1 (5 μl). After 1 h at 37° C., reactions were quenched with […] of a 2:1 v/v mixture of chloroform and methanol with 10 nmol d31-palmitate as an internal standard. The reactions were vortexed and the organic layer was transferred to a sample vial for analysis by LC-MS. For separation of polar metabolites, normal-phase chromatography was performed with a Luna-[…] NH2 column (50 mm×4.60 mm, Phenomenex). Mobile phases were as follows: Buffer A, acetonitrile; Buffer B, 95:5 water/acetonitrile with 0.1% formic acid or 0.2% ammonium hydroxide with 50 mM ammonium acetate for positive and negative ionization mode, respectively. The flow rate for each run started at 0.2 ml/min for 2 min, followed by a gradient starting at 0% B and increasing linearly to 100% B over the course of 15 min with a flow rate of 0.7 ml/min, followed by an isocratic gradient of 100% B for 10 min at 0.7 ml/min before equilibrating for 5 min at 0% B with a flow rate of 0.7 ml/min. MS analysis was performed with an electrospray ionization (ESI) source on an Agilent 6430 QQQ LC-MS/MS. The capillary voltage was set to 3.5 kV, and the fragmentor voltage was set to 100 V. The drying gas temperature was 325° C., the drying gas flow rate was 10 l/min, and the nebulizer pressure was 45 psi. Monitoring of hydrolysis starting materials and products was performed by scanning a mass range of m/z 50-1200. Peaks corresponding to the liberated fatty acids (products) or the intact starting material was integrated.
microsome stability (in vitro half-life) [2],Structure (SMILES),pharmacokinetic properties in vivo (plasma concentration) [1],"uncoupling bioactivity in vivo (DIO mice; DIO mice on high fat diet, intraperitoneal, once per day)","average food consumed per mouse per day (DIO mice; DIO mice, different treatment groups, 7 day dosing period, FIG. 4B)","change in body weight from the initial weight (DIO mice; DIO mice, higher doses, once per day, day 7 versus day 0, FIG. 4A)",activity at 50 µM (C2C12 cells) [%],hydrolysis by PM20D1 (mPM20D1)
long in vitro half-lives,"CCCCCCCC/C=C\CCCCCCCC(=O)N1Cc2ccccc2[C@H]1C(=O)O [Compound 33, (S)-2-Oleoylisoindoline-1-carboxylic acid]",augmented pharmacokinetic properties in vivo,possesses uncoupling bioactivity in vivo,consumed the same amount of food per mouse per day,statistically significant weight loss over time,240 ± 24,entirely resistant to hydrolysis by PM20D1
long in vitro half-lives,"CCCCCCCC/C=C\CCCCCCCC(=O)N1Cc2ccccc2[C@@H]1C(=O)O [Compound 34, (R)-2-Oleoylisoindoline-1-carboxylic acid]",,,,,190 ± 12,entirely resistant to hydrolysis by PM20D1
long in vitro half-lives,"CCCCC/C=C\C/C=C\CCCCCCCC(=O)N1Cc2ccccc2[C@H]1C(=O)O [Compound 36, (S)-2-((9Z,12Z)-Octadeca-9,12-dienoyl)isoindoline-1-carboxylic acid]",,,,,185 ± 18,entirely resistant to hydrolysis by PM20D1
long in vitro half-lives,"CCCCC/C=C\C/C=C\CCCCCCCC(=O)N1Cc2ccccc2[C@@H]1C(=O)O [Compound 37, (R)-2-((9Z,12Z)-Octadeca-9,12-dienoyl)isoindoline-1-carboxylic acid]",augmented pharmacokinetic properties in vivo,,,,190 ± 12,entirely resistant to hydrolysis by PM20D1
